Read-outs that look alike come from different tables or passages of the source. Blank lines part the entries; values can stand above or below the molecule they belong to.
Tests used:
[1] = target: T1, full-length human AR (Homo sapiens, UniProt P10275); test: AR antagonism, reporter gene assay in hAR/HEK293 cells; assay type: cell-based; details: HEK293 cells stably transfected with full-length human AR and androgen responsive luciferase reporter; co-treated with submaximal testosterone (usually 0.45 nM); 1% DMSO; triplicates
T1 construct: expression vector encoding full-length human AR; expressed in transfected cells; host or cells: HEK293 (hAR/HEK293 cells)
T1 sequence (P10275 1-920): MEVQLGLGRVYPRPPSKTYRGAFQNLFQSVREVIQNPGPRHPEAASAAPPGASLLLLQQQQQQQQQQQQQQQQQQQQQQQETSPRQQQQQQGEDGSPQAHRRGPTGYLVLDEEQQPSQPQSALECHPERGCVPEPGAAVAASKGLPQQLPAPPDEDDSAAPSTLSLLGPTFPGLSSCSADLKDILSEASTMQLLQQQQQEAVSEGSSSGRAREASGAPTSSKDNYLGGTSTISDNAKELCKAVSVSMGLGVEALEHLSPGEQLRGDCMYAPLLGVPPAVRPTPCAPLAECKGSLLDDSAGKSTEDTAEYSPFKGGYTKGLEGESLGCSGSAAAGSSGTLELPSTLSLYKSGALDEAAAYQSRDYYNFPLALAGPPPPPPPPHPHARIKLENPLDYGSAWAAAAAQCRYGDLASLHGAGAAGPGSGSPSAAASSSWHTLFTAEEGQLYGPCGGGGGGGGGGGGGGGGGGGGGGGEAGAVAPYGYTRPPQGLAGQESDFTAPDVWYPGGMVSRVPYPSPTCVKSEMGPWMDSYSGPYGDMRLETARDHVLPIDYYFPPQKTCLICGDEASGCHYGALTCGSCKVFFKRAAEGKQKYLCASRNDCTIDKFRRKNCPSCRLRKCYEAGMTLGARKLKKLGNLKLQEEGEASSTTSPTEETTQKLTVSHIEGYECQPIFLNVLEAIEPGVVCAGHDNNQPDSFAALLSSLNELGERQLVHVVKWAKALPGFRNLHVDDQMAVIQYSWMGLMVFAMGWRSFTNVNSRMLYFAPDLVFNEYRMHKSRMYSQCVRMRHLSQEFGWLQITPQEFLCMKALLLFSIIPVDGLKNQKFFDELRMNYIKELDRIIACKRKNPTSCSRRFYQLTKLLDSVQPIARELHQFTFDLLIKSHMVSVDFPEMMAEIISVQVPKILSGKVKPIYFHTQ
Description: Antagonism of test compounds for AR was measured by reporter gene assay in human embryonic kidney (HEK293) cells stably transfected with an expression vector encoding full-length human AR and androgen responsive luciferase reporter gene construct (hAR/HEK293 cells). To determine antagonism for hAR, the cells were treated simultaneously with increasing concentrations of the test compound and submaximal concentration of testosterone (usually 0.45 nM). The final DMSO concentration was 1%. All test compounds were studied in triplicates. The cells were incubated for […] before measurement of luciferase activity using Luciferase Assay System (Promega Corporation).

[2] = target: T2, 17,20 lyase (CYP17) (Homo sapiens, UniProt P05093); test: 17,20 lyase (CYP17) inhibition, acetic acid release assay (AARA) on H295R cells; assay type: cell-based
T2 construct: endogenous in cells; host or cells: H295R human adrenocortical carcinoma cells
T2 sequence (P05093 1-508): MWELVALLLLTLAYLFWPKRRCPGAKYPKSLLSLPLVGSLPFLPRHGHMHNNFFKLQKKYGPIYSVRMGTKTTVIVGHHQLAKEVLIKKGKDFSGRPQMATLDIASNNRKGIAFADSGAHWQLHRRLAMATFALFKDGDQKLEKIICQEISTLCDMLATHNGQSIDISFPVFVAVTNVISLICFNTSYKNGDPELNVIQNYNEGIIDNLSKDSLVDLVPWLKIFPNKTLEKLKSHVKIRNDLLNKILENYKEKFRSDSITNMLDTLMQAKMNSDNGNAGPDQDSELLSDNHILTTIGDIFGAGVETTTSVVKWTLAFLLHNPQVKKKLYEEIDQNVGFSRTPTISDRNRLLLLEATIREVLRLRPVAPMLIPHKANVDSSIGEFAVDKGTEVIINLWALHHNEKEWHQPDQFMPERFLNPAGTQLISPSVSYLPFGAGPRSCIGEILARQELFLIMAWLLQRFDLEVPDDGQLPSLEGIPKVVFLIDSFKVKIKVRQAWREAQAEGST
Description: The ability of the test compounds to inhibit 17,20 lyase catalysed conversion of 17α-hydroxypregnenolone to dehydroepiandrosterone and acetic acid was measured by acetic acid release assay (AARA) on human H295R adrenocortical carcinoma cell line (Grigoryev, D. N. et al., Analytical Biochemistry 1999; 267:319-330). […] The final DMSO concentration was 1%. Cell culture medium was extracted with dextran-coated charcoal suspension (Isomaa, V. et al., Endocrinology 1982; 111(3):833-843). ^3H-acetic acid was determined by mixing 100 μl of supernatant fraction in 200 μl of scintillation fluid (OptiPhase SuperMix, Perkin Elmer). Radioactivity was measured using a Microbeta scintillation counter (1450 MicroBeta Trilux, Wallac). All the test compounds were studied in quadruplicates.

[3] = human H295R adrenocortical carcinoma cells, overnight (16-19 h) with 17α-[21-3H]hydroxypregnenolone, 3H-acetic acid release, 1% DMSO, quadruplicates, read-out: CYP17 inhibition IC50

SMILES: CCN(c1ccc(C#N)c(C(F)(F)F)c1)C1CC=C(c2cncn2C(C)C)C1 (single isomer, unassigned) [Ex. 51 enantiomer 2, 4-(Ethyl(3-(1-isopropyl-1H-imidazol-5-yl)cyclopent-3-enyl)amino)-2-(trifluoromethyl)benzonitrile]
- IC50 [1]: 17 nM
- IC50 [2]: 166 nM

SMILES: CCN(c1ccc(C#N)c(C(F)(F)F)c1)C1CCC(n2ccnc2)C1 (single isomer, unassigned) [Ex. 86 trans-enantiomer 1, 4-((-3-(1H-imidazol-1-yl)cyclopentyl)(ethyl)amino)-2-(trifluoromethyl)benzonitrile]
- IC50 [1]: 73 nM
- IC50 [2]: 27 nM

- IC50 [1]: 17 nM
- IC50 [2, 3]: 16 nM
SMILES: Cc1nc(N(C)C2C=C(n3ccnc3)CCC2(C)C)ccc1[N+](=O)[O-] (single isomer, unassigned) [Ex. 203 enantiomer 1, N-[3-(1H-Imidazol-1-yl)-6,6-dimethylcyclohex-2-enyl]-N,6-dimethyl-5-nitropyridin-2-amine]

SMILES: CCN(c1ccc(C#N)c(C(F)(F)F)c1)C1CC=C(c2cnco2)C1 (single isomer, unassigned) [Ex. 233 enantiomer 1, 4-(Ethyl(3-(oxazol-5-yl)cyclopent-3-enyl)amino)-2-(trifluoromethyl)benzonitrile]
- IC50 [1]: 59 nM
- IC50 [2]: 66 nM

SMILES: CN(c1ccc(C#N)c(C(F)F)c1)C1C=C(n2ccnc2)CCC1(C)C (single isomer, unassigned) [Ex. 240(b), 4-((3-(1H-imidazol-1-yl)-6,6-dimethylcyclohex-2-enyl)(methyl)amino)-2-(difluoromethyl)benzonitrile (pure enantiomer)]
- IC50 [1]: 52 nM
- IC50 [2, 3]: 33 nM

SMILES: CCN(c1ccc(C#N)c(C(F)(F)F)c1)C1CC(CO)=C(n2ccnc2)C1(C)C (single isomer, unassigned) [Ex. 270 enantiomer 1, 4-(Ethyl(4-(hydroxymethyl)-3-(1H-imidazol-1-yl)-2,2-dimethylcyclopent-3-en-1-yl)amino)-2-(trifluoromethyl)benzonitrile]
- IC50 [1]: 56 nM
- IC50 [2]: 321 nM

SMILES: CCN(c1ccc(C#N)c(Cl)c1)C1CCCC(n2ccnc2)C1 (single isomer, unassigned; diastereomer 4) [Ex. 91 cis-diastereomer, 4-((3-(1H-imidazol-1-yl)cyclohexyl)(ethyl)amino)-2-chlorobenzonitrile]
- IC50 [1]: 64 nM
- IC50 [2]: 36 nM

SMILES: CCN(c1ccc(C#N)c(C(F)(F)F)c1)C1CCCC(n2cncn2)C1 (single isomer, unassigned; diastereomer 4) [Ex. 209 cis-diastereomer, 4-((3-(1H-1,2,4-triazol-1-yl)cyclohexyl)(ethyl)amino)-2-(trifluoromethyl)-benzonitrile]
- IC50 [1]: 56 nM
- IC50 [2]: 154 nM

SMILES: CCN(c1ccc(C#N)c(Cl)c1)C1C=C(n2ccnc2)CCC1(C)C (single isomer, unassigned; enantiomer 1) [Ex. 21, 4-((3-(1H-imidazol-1-yl)-6,6-dimethylcyclohex-2-enyl)(ethyl)amino)-2-chlorobenzonitrile (enantiomer 1)]
- IC50 [1]: 19 nM
- IC50 [2]: 76 nM

SMILES: CN(c1ccc(C#N)c(Cl)c1)[C@@H]1C=C(n2ccnc2)[C@H](O)CC1(C)C (single isomer, unassigned; enantiomer 1) [Ex. 253(b), cis-2-Chloro-4-{[4-hydroxy-3-(1H-imidazol-1-yl)-6,6-dimethylcyclohex-2-enyl](methyl)amino}benzonitrile (enantiomer 1)]
- IC50 [1]: 140 nM
- IC50 [2]: 124 nM

SMILES: CCN(c1ccc(C#N)c(C(F)(F)F)c1)C1CCC=C(c2ccncc2OC)C1 (single isomer, unassigned; isomer 4) [Ex. 84 3,4-isomer, 4-(Ethyl(3-(3-methoxypyridin-4-yl)cyclohex-3-en-1-yl)amino)-2-(trifluoromethyl)benzonitrile]
- IC50 [1]: 50 nM
- IC50 [2]: 96 nM

SMILES: CCN(c1ccc(C#N)c(C(F)(F)F)c1)C1CCC=C(c2cncn2CC)C1 (single isomer, unassigned; isomer 4) [Ex. 208 1,5-isomer, 4-(ethyl(3-(1-ethyl-1H-imidazol-5-yl)cyclohex-3-en-1-yl)-amino)-2-(trifluoromethyl)benzonitrile]
- IC50 [1]: 34 nM
- IC50 [2]: 137 nM

SMILES: CCN(c1ccc(C#N)c(C(F)(F)F)c1)C1C=C(n2ccnc2)CCC1 (centres unmarked) [Ex. 63, 4-((3-(1H-imidazol-1-yl)cyclohex-2-en-1-yl)(ethyl)amino)-2-(trifluoromethyl)benzonitrile]
- IC50 [1]: 34 nM
- IC50 [2]: 70 nM

SMILES: CCCn1cncc1C1=CCC(N(CC)c2ccc(C#N)c(C(F)(F)F)c2)C1 (centres unmarked) [Ex. 103, 4-(Ethyl(3-(1-propyl-1H-imidazol-5-yl)cyclopent-3-en-1-yl)amino)-2-(trifluoromethyl)benzonitrile]
- IC50 [1]: 58 nM
- IC50 [2]: 29 nM

SMILES: CCN(c1ccc(C#N)c(C(F)(F)F)c1)C1C=C(n2ccnc2)C2(CC1)CC2 (centres unmarked) [Ex. 107, 4-((4-(1H-imidazol-1-yl)spiro[2.5]oct-4-en-6-yl)(ethyl)amino)-2-(trifluoromethyl)benzonitrile]
- IC50 [1]: 51 nM
- IC50 [2]: 33 nM

SMILES: CCN(c1ccc(C#N)c(C(F)(F)F)c1)[C@@H]1CCCN(c2ccncc2F)C1 [Ex. 160, (R)-4-(Ethyl(1-(3-fluoropyridin-4-yl)piperidin-3-yl)amino)-2-(trifluoromethyl)benzonitrile]
- IC50 [1]: 27 nM
- IC50 [2]: 111 nM

SMILES: CN(c1ccc(C#N)c(C(F)(F)F)n1)C1C=C(n2ccnc2)CCC1(C)C (centres unmarked) [Ex. 250, 6-{[3-(1H-Imidazol-1-yl)-6,6-dimethylcyclohex-2-enyl](methyl)amino}-2-(trifluoromethyl)nicotinonitrile]
- IC50 [1]: 205 nM
- IC50 [2, 3]: 27 nM

- IC50 [1]: 141 nM
- IC50 [2, 3]: 33 nM
SMILES: COc1cc(N(C)C2C=C(n3ccnc3)CCC2(C)C)ccc1C#N (centres unmarked) [Ex. 252, 4-{[3-(1H-Imidazol-1-yl)-6,6-dimethylcyclohex-2-enyl](methyl)amino}-2-methoxybenzonitrile]

SMILES: CCN(c1ccc(C#N)c(C(F)(F)F)c1)C1CC=C(n2ccnc2)C1(C)C (centres unmarked) [Ex. 275, 4-((3-(1H-imidazol-1-yl)-2,2-dimethylcyclopent-3-en-1-yl)(ethyl)amino)-2-(trifluoromethyl)benzonitrile]
- IC50 [1]: 63 nM
- IC50 [2]: 82 nM

Reference: patent US9890139B2, “CYP17 inhibitors/antiandrogens” (Orion Corporation, priority 2013, dated 2018)
